In US20150105252A1, “SUBSTITUTED PYRAZOLES AS HERBICIDES” (E I DU PONT DE NEMOURS AND COMPANY, priority 2013, published 2015):

How the values were obtained:
velvetleaf [1] = test: Test C preemergence; type: in vivo, Abutilon theophrasti; settings: preemergence
How it was run: (§1)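 In this greenhouse assay, seeded soil (loam plus sand) or emerged seedlings in peat-vermiculite medium were treated with formulated compound. Roughly two weeks later (13–15 days), each species was scored visually relative to controls, from 0 for no effect to 100 for complete control.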

johnsongrass [2] = test: Test C postemergence; type: in vivo, Sorghum halepense
From the text: (§2) Seeds of plant species selected from blackgrass (Alopecurus myosuroides), ryegrass, Italian (Italian ryegrass, Lolium multiflorum), wheat (winter wheat, Triticum aestivum), galium (catchweed bedstraw, Galium aparine), corn (Zea mays), crabgrass, large (large crabgrass, Digitaria sanguinalis), foxtail, giant (giant foxtail, Setaria faberii), johnsongrass (Sorghum halepense), lambsquarters (Chenopodium album), morningglory (Ipomoea coccinea), nutsedge, yellow (yellow nutsedge, Cyperus esculentus), pigweed (redroot pigweed, Amaranthus retroflexus), ragweed (common ragweed, Ambrosia elation), soybean (Glycine max), barnyardgrass (Echinochloa crus-galli), oilseed rape (Brassica napus), waterhemp (common waterhemp, Amaranthus rudis), oat, wild (wild oat, Avena fatua), kochia (Kochia scoparia), Surinam grass (Brachiaria decumbens), foxtail, green (green foxtail, Setaria viridis), goosegrass (Eleusine indica), bromegrass, downy (downy bromegrass, Bromus tectorum), nightshade (eastern black nightshade, Solanum ptycanthum), cocklebur (common cocklebur, Xanthium strumarium), cupgrass, woolly (woolly cupgrass, Eriochloa villosa), bermudagrass (Cynodon dactylon), sunflower, (common oilseed sunflower, Helianthus annuus), Russian thistle (Salsola kali), and velvetleaf (Abutilon theophrasti) were planted into a blend of loam soil and sand and treated preemergence with test chemicals formulated in a non-phytotoxic solvent mixture which included a surfactant.
(§3) At the same time, plants selected from these crop and weed species and also chickweed (common chickweed, Stellaria media), canarygrass (littleseed canarygrass, Phalaris minor), and deadnettle (henbit deadnettle, Lamium amplexicaule), were planted in pots containing Redi-Earth® planting medium (Scotts Company, 14111 Scottslawn Road, Marysville, Ohio 43041) comprising spaghnum peat moss, vermiculite, wetting agent and starter nutrients and treated with postemergence applications of test chemicals formulated in the same manner. Plants ranged in height from 2 to 18 cm (1- to 4-leaf stage) for postemergence treatments. Treated plants and controls were maintained in a greenhouse for 13 to 15 days, after which time all species were compared to controls and visually evaluated. Plant response ratings, summarized in Table C, are based on a scale of 0 to 100 where 0 is no effect and 100 is complete control. A dash (-) response means no test result.

soybean = test: Test C preemergence; type: in vivo, Glycine max; settings: preemergence
How it was run: as §1

oilseed rape = test: Test C preemergence; type: in vivo, Brassica napus; settings: preemergence
How it was run: as §1

chickweed = test: Test C postemergence; type: in vivo, Stellaria media
From the text: as §2, §3

blackgrass = test: Test C postemergence; type: in vivo, Alopecurus myosuroides
From the text: as §2, §3

barnyardgrass = test: Test C preemergence; type: in vivo, Echinochloa crus-galli; settings: preemergence
How it was run: as §1

galium = test: Test C preemergence; type: in vivo, Galium aparine; settings: preemergence
How it was run: as §1

crabgrass, large [3] = test: Test A postemergence; type: in vivo, Digitaria sanguinalis
How it was run: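 Injury readout: eye-scored versus untreated controls, 0 to 100. Exposure period: ~10 days, greenhouse. Application: soil-directed spray over sown seed (pre) or spray on seedlings 2–10 cm tall with one or two leaves (post), compound carried in non-phytotoxic solvent including surfactant.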

johnsongrass [4] = test: Test C preemergence; type: in vivo, Sorghum halepense; settings: preemergence
How it was run: as §1

crabgrass, large [5] = test: Test C postemergence; type: in vivo, Digitaria sanguinalis
How it was run: as §1

velvetleaf [6] = test: Test C postemergence; type: in vivo, Abutilon theophrasti; settings: postemergence, 250 g ai/ha; scale 0 to 100 (0 no effect, 100 complete control)
From the text: as §2, §3

morningglory = test: Test C postemergence; type: in vivo, Ipomoea coccinea
How it was run: as §1

wheat = test: Test C preemergence; type: in vivo, Triticum aestivum; settings: preemergence
How it was run: as §1

[7] = 31 g ai/ha, visual rating, scale 0 to 100 (0 no effect, 100 complete control), 13 to 15 days
[8] = 62 g ai/ha, scale 0 to 100 (0 no effect, 100 complete control), 13 to 15 days
[9] = 125 g ai/ha, 13 to 15 days, scale 0 to 100, 0 = no effect, 100 = complete control
[10] = 250 g ai/ha, scale 0 to 100, 0 is no effect, 100 is complete control
[11] = Postemergence, 31 g ai/ha, visually evaluated after 13 to 15 days
[12] = postemergence, 62 g ai/ha, scale 0 to 100
[13] = postemergence, 250 g ai/ha, scale 0 to 100 (0 no effect, 100 complete control)
[14] = postemergence, 125 g ai/ha, scale 0 to 100, 0 no effect, 100 complete control

CCNC(=O)c1cc(CC)n(Cc2ccnc(C(F)(F)F)c2)n1 [Compound 196]
Velvetleaf plant response rating (velvetleaf [1]; [7]): 40 | Velvetleaf plant response rating (velvetleaf [1]; [8]): 100 | Plant response rating, Velvetleaf (velvetleaf [1]; [9]): 100 | Velvetleaf plant response rating (velvetleaf [1]; [10]): 100 | Plant response rating (scale of 0 to 100 where 0 is no effect and 100 is complete control), Johnsongrass (johnsongrass [2]; [11]): 0 | Johnsongrass plant response rating (johnsongrass [2]; [12]): 5 | Plant response rating, Johnsongrass (johnsongrass [2]; [13]): 15 | Plant response rating, Johnsongrass (johnsongrass [2]; [14]): 10 | Soybean plant response rating (soybean; [7]): 40 | Soybean plant response rating (soybean; [8]): 55 | Plant response rating, Soybean (soybean; [9]): 90 | Soybean plant response rating (soybean; [10]): 98 | Oilseed Rape plant response rating (oilseed rape; [7]): 90 | Oilseed Rape plant response rating (oilseed rape; [8]): 98 | Plant response rating, Oilseed Rape (oilseed rape; [9]): 100 | Oilseed Rape plant response rating (oilseed rape; [10]): 100 | Plant response rating (scale of 0 to 100 where 0 is no effect and 100 is complete control), Chickweed (chickweed; [11]): 50 | Chickweed plant response rating (chickweed; [12]): 60 | Plant response rating, Chickweed (chickweed; [13]): 80 | Plant response rating, Chickweed (chickweed; [14]): 80 | Plant response rating (scale of 0 to 100 where 0 is no effect and 100 is complete control), Blackgrass (blackgrass; [11]): 20 | Blackgrass plant response rating (blackgrass; [12]): 15 | Plant response rating, Blackgrass (blackgrass; [13]): 15 | Plant response rating, Blackgrass (blackgrass; [14]): 5 | Barnyardgrass plant response rating (barnyardgrass; [7]): 98 | Barnyardgrass plant response rating (barnyardgrass; [8]): 100 | Plant response rating, Barnyardgrass (barnyardgrass; [9]): 100 | Barnyardgrass plant response rating (barnyardgrass; [10]): 100 | Galium plant response rating (galium; [7]): 98 | Galium plant response rating (galium; [8]): 95 | Plant response rating, Galium (galium; [9]): 100 | Galium plant response rating (galium; [10]): 100 | Crabgrass, Large plant response rating (crabgrass, large [3]; Postemergence, 500 g ai/ha, 0 to 100 scale (0 no effect, 100 complete control)): 100 | Crabgrass, Large plant response rating (crabgrass, large [3]; postemergence, 125 g ai/ha, about 10 days, visual rating on 0 to 100 scale (0 no effect, 100 complete control)): 90 | Johnsongrass plant response rating (johnsongrass [4]; [7]): 55 | Johnsongrass plant response rating (johnsongrass [4]; [8]): 85 | Plant response rating, Johnsongrass (johnsongrass [4]; [9]): 100 | Johnsongrass plant response rating (johnsongrass [4]; [10]): 100 | Plant response rating (scale of 0 to 100 where 0 is no effect and 100 is complete control), Crabgrass, Large (crabgrass, large [5]; [11]): 5 | Crabgrass, Large plant response rating (crabgrass, large [5]; [12]): 5 | Plant response rating, Crabgrass, Large (crabgrass, large [5]; [13]): 25 | Plant response rating, Crabgrass, Large (crabgrass, large [5]; [14]): 10 | Plant response rating, Velvetleaf (velvetleaf [6]): 50 | Plant response rating (scale of 0 to 100 where 0 is no effect and 100 is complete control), Morningglory (morningglory; [11]): 40 | Morningglory plant response rating (morningglory; [12]): 80 | Plant response rating, Morningglory (morningglory; [13]): 75 | Plant response rating, Morningglory (morningglory; [14]): 55 | Wheat plant response rating (wheat; [7]): 0 | Wheat plant response rating (wheat; [8]): 65 | Plant response rating, Wheat (wheat; [9]): 85 | Wheat plant response rating (wheat; [10]): 80
